Columns and labels:
KCL22-r xenograft = assay: KCL22-r (dasatinib-refractory) xenograft study (FIG. 7); assay type: in vivo, mouse; details: dasatinib monotherapy
Procedure: Mice were maintained under specific pathogen-free conditions, and food and water were provided ad libitum. Female 6- to 8-week-old athymic BALB/c nude (NCr) nu/nu mice were used to inoculate Ph+ CML cell lines. For example, KCL22-s cells (5×10^6) were harvested on the day of use and injected in growth-factor-reduced Matrigel/PBS (50% final concentration in 100 μL). One flank was inoculated subcutaneously per mouse. Mice were monitored daily, weighed twice weekly, and caliper measurements began when tumors became visible. Animals were randomly assigned to treatment groups as indicated in FIG. 1 by an algorithm that assigns animals to groups to achieve best case distributions of mean tumor size with lowest possible standard deviation. Tumor volume was calculated by measuring two perpendicular diameters using the following formula: (L×w^2)/2, in which L and w refer to the length and width of the tumor diameter, respectively. When tumors reached an average size of 100 mm^3, mice were randomized and treated with vehicle (20% Dexolve) or indicated compounds using a daily or twice daily schedule by oral gavage. Results are expressed as mean and […]. […] Combination treatment with dasatinib renders more than 90% complete responses. […]

[1] = Toxicity / body weight observation in Ba/F3 allograft mice; assay type: in vivo, mouse; details: Ba/F3 T315I allograft NOD/SCID mice, oral gavage, single agents and combinations
Description: Mice were maintained under specific pathogen-free conditions, and food and water were provided ad libitum. A mouse Ba/F3 cell line that expresses a p210 […] fusion and T315I mutation was implanted subcutaneously (1×10^6 cells per mouse) into the right flank of female 6- to 8-week-old NOD/SCID mice. Mice were monitored daily, weighed up to three times weekly, and caliper measurements began when tumors became visible. Animals were randomly assigned to treatment groups as indicated in FIG. 2 by an algorithm that assigns animals to groups to achieve best case distributions of mean tumor size with lowest possible standard deviation. Tumor volume was calculated by measuring two perpendicular diameters using the following formula: (L×w^2)/2, in which L and w refer to the length and width of the tumor diameter, respectively. When tumors reached an average size of ~100 mm^3, mice were randomized and treated with vehicle, a SOS1 inhibitor of the present disclosure (Compound A), asciminib, ponatinib, Compound A and asciminib, or Compound A and ponatinib by oral gavage at the indicated dose and schedule.

Row | SMILES | response of KCL22-r model to dasatinib (KCL22-r xenograft) | toxicity or body weight loss [1]
1 | Cc1nc(Nc2ncc(C(=O)Nc3c(C)cccc3Cl)s2)cc(N2CCN(CCO)CC2)n1 [dasatinib] | dasatinib-refractory tumor | 
2 | O=C(Nc1ccc(OC(F)(F)Cl)cc1)c1cnc(N2CC[C@@H](O)C2)c(-c2ccn[nH]2)c1 [asciminib] |  | No apparent toxicity or body weight loss was observed
3 | Cc1ccc(C(=O)Nc2ccc(CN3CCN(C)CC3)c(C(F)(F)F)c2)cc1C#Cc1cnc2cccnn12 [ponatinib] |  | No apparent toxicity or body weight loss was observed
